Measurements reported in patent US5464826A, “Method of treating tumors in mammals with 2',2'-difluoronucleosides” (Eli Lilly and Company, priority 1994, dated 1995).
In brackets after ≈: the same amount, converted by molar mass. Where two headings read alike, the source gives them in different places.

Assays:
[1] = tested on: human leukemic cells (CCRF-CEM cell line); assay: Cytotoxicity Screen (growth inhibition); assay type: cell-based; conditions: for IC50: Homo sapiens, read-out: IC50 (concentration giving 50% growth inhibition)
Excerpt: The compounds represented by formula I employed in the present invention are cytostatic in that they inhibit the growth of human leukemic cells (CCRF-CEM cell line). […] T1 TABLE 1-Cytotoxicity Screen? -Compound Name?

[2] = tested on: L1210V lymphocytic leukemia; assay: L1210V Lymphocytic Leukemia Tumor System; assay type: in vivo, mice; conditions: Experiment 1, IP; for Indefinite Survivors: 45 day survivors; for Toxic Deaths: deaths/mice in group
Method: The study testing the efficacy of these compounds against L1210V leukemia was initiated by an IP inoculation of 1×10^6 cells. Treatment was begun 24 hours after inoculation. The response to therapy was determined by comparing the mean life span of the ten treated animals to that of the ten control animals; prolongation of life in the treated animals beyond that of controls is expressed as a percentage. In the Table, column 1 gives the example number of the compound tested; column 2, the experiment number; column 3, the dose level of the compound in mg/kg; column 4, the route of administration; column 5, the dosage schedule, that is, the days on which the compound was administered to the mice; column 6, the average increase in life span of the treated mice as compared to the control mice; column 7, the toxic deaths over the number of mice in each group; and column 8, the indefinite survivors, that is, the number of 45 day survivors in each group.

[3] = tested on: X5563 plasma cell myeloma; assay: X5563 plasma cell myeloma tumor model; assay type: in vivo, mice (C3H); conditions: 30.0 mg/kg; IP; Daily for 9 days
Excerpt: X5563 Myeloma--the tumor is maintained in C3H mice.
(§1) The tumor was removed from passage animals and minced into 1 to 3 mm square fragments using sterile techniques. Tumor pieces were checked for sterility using both Antibiotic Medium 1 and Brain Heart Infusion (Difco; Detroit, Mich.). Recipient mice were shaved and tumor pieces were implanted subcutaneously in the axillary region by trocar. Drug therapy on the appropriate schedule was initiated on the day after tumor implant. The compound was dissolved in saline for all experiments. All animals were weighed at the beginning and end of drug treatment. Food and water were provided ad libitum. On days 10 to 12, two dimensional measurements (width and length) of all tumors were taken using vernier calipers. Tumor weights were calculated from these measurements using the following formula:
Tumor Weight (mg)=Tumor Length (mm)×Tumor Width (mm)^2 /2
For all data, the tumor weight was rounded to the nearest tenth of a gram for analysis. No group is included in the analysis for therapeutic activity in which deaths attributable to drug toxicity exceeded 30 percent of the treated group.
In Table 3 which follows, column 1 gives the example number of the compound tested; column 2 provides the tumor system; column 3, the dose level; column 4, the route administered; column 5, the dosage schedule; column 6, the percent inhibition of the tumor; and column 7, the toxic deaths observed prior to completion of the study.

[4] = tested on: 6C3HED, CA755, P1534J, X5563; assay: additional tumor test systems (summary statement); assay type: in vivo, mice; conditions: systems include 6C3HED
Excerpt: These systems include the 6C3HED lymphosarcoma, also known as the Gardner lymphosarcoma (6C3HED); the CA-755 adenocarcinoma (CA755); the P1534J lymphatic leukemia (P1534J); and the X5563 plasma cell myeloma (X5563). Each of these systems is described in detail below.
as §1, with “formula: […]” for “formula:”

Cc1cn(C2O[C@H](CO)[C@@H](O)C2(F)F)c(=O)nc1N (stereo partly shown) [Example 4, 1-(4-Amino-5-methyl-2-oxo-1H-pyrimidin-1-yl)-2-desoxy-2,2-difluororibose]
IC50 [1]: 0.3 µg/mL (≈ 1.08 µM)

1-(2,6-diamino-9H-purin-9-yl)-2-desoxy-2,2-difluororibose
IC50 (concentration giving 50% growth inhibition) [1]: 0.075 µg/mL

1-(6-Amino-9H-purin-9-yl)-2-desoxy-2,2-difluororibose [Example 6]
Percent Increase Life Span ([2]; 100.0 mg/kg, Daily for 9 days): 16% | Indefinite Survivors ([2]; 100.0 mg/kg, Daily for 9 days): 0 | Toxic Deaths ([2]; 100.0 mg/kg, Daily for 9 days): 0/7 | Percent Increase Life Span ([2]; 200.0 mg/kg, Daily for 9 days): 18% | Indefinite Survivors ([2]; 200.0 mg/kg, Daily for 9 days): 0 | Toxic Deaths ([2]; 200.0 mg/kg, Daily for 9 days): 0/7

Nc1ncnc2c1ncn2[C@@H]1O[C@H](CO)[C@@H](O)C1(F)F [β-1-(6-amino-9H-purin-9-yl)-2-desoxy-2,2-difluororibose]
IC50 [1]: 0.5 µg/mL (≈ 1.74 µM)

O=c1ccn(C2O[C@H](CO)[C@@H](O)C2(F)F)c(=O)[nH]1 (stereo partly shown) [Example 3, 1-(2,4-Dioxo-1H, 3H-pyrimidin-1-yl)-2-desoxy-2,2-difluororibose]
IC50 [1]: 5.4 µg/mL (≈ 20.4 µM)

Nc1ncnc2c1ncn2[C@H]1O[C@H](CO)[C@@H](O)C1(F)F [α-1-(6-amino-9H-purin-9-yl)-2-desoxy-2,2-difluororibose]
IC50 [1]: 6.9 µg/mL (≈ 24 µM)

Nc1nc(Cl)nc2c1ncn2[C@@H]1O[C@H](CO)[C@@H](O)C1(F)F [β-1-(2-chloro-6-amino-9H-purin-9-yl)-2-desoxy-2,2-difluororibose]
IC50 [1]: 0.4 µg/mL (≈ 1.24 µM)

Nc1ccn(C2O[C@H](CO)[C@H](O)C2(F)F)c(=O)n1 (stereo partly shown) [Example 5, 1-(4-Amino-2-oxo-1H-pyrimidin-1-yl)-2-desoxy-2,2-difluoroxylose]
Percent Inhibition of Tumor [3]: 28% | Toxic Deaths [3]: 0/10 | Percent Increase Life Span ([2]; 30.0 mg/kg, Daily for 10 days): 57% | Indefinite Survivors ([2]; 30.0 mg/kg, Daily for 10 days): 0 | Toxic Deaths ([2]; 30.0 mg/kg, Daily for 10 days): 0/10 | activity in additional tumor test systems (in words) [4]: demonstrated activity in additional tumor test systems | IC50 ([1]; CCRF-CEM): 0.3 µg/mL (≈ 1.14 µM)

O=c1[nH]c(=O)c2ncn(C3O[C@H](CO)[C@@H](O)C3(F)F)c2[nH]1 (stereo partly shown) [1-(2,6-dioxo-1H,3H,9H-purin-9-yl)-2-desoxy-2,2-difluororibose]
IC50 [1]: 0.3 µg/mL (≈ 0.986 µM)

Nc1nc(Cl)nc2c1ncn2[C@H]1O[C@H](CO)[C@@H](O)C1(F)F [α-1-(2-chloro-6-amino-9H-purin-9-yl)-2-desoxy-2,2-difluororibose]
IC50 [1]: > 20 µg/mL

Nc1nc2c(ncn2C2O[C@H](CO)[C@@H](O)C2(F)F)c(=O)[nH]1 (stereo partly shown) [1-(2-amino-6-oxo-1H,9H-purin-9-yl)-2-desoxy-2,2-difluororibose]
IC50 [1]: 0.1 µg/mL (≈ 0.33 µM)
